The record followed here is US7538222B2, “N-substituted piperidine derivatives as serotonin receptor agents” (ACADIA Pharmaceuticals, Inc., priority 2002, dated 2009).

The subject of this assay is Male NSA mice. The assay can be described thus: In vivo determination of behavioral effects (motor activity / MK-801 hyperactivity), minimum effective dose. The settings on record: p.o., lowest dose significantly different from vehicle control (distance traveled). How it is done: Animals and Apparatus. Male NSA mice (Harlan; San Deigo, Calif.) were used as subjects. Mice weighed 20-30 g. Animals were housed 8/cage in the One Cage system (One Cage; Lab Products, Inc., Seaford, Del.) with bedding (⅛ inch Bed “O” Cob; Harlan Teklad, Madison, Wis.) in a room with controlled temperature 22±3° C. and a 12 hour light:dark cycle (lights on 6 am). Water and standard rodent chow (Harlan Teklad) were continuously available in the home cage. For testing, plastic locomotor activity cages (20×20×30 cm; AccuScan Instruments, Columbus, Ohio) were equipped with photocell beams for monitoring horizontal activity. Data were collected using Versamax computer software (AccuScan Instruments).
For determination of spontaneous activity, test compounds were administered alone (s.c. 10 min or p.o. 30 min before the session). For hyperactivity experiments, mice were injected with 0.3 mg/kg MK-801 i.p. 15 min presession (the peak dose for producing hyperactivity in an inverted-U dose-effect curve as determined in pilot experiments) in combination with vehicle or test compound. Motor activity data were collected during a 15 min session in a lit room. Mice had no prior exposure to the motor cages. Each dose or dose combination was tested in a separate group of mice (n=8).
Distance traveled (cm) was calculated and averaged across animals in a group. […]

For the compound `CC(C)COc1ccc(CC(=O)N(Cc2ccc(F)cc2)C2CCN(CCCN3C(=O)OC[C@@H]3C(C)C)CC2)cc1.O=C(O)C(=O)O` [117NLS01, N-(4-Fluorobenzyl)-2-(4-isobutoxyphenyl)-N-{1-[3-(4-(S)-isopropyl-2-oxo-oxazolidin-3-yl)propyl]piperidin-4-yl}acetamide], the “MED in vivo po” value is reported as 1 mg/kg.
